Data set [1] addresses T1, HIV integrase (Human immunodeficiency virus type 1 group M subtype B, UniProt P04585). The data set can be described thus: biochemical. As to conditions: read-out: Inhibition of 3' processing activity (IC50).
Data set [2] has as its target T1, HIV integrase. The data set can be described thus: biochemical. The conditions noted are these: read-out: Inhibition of strand transfer (IC50).
For data set [3], the target named is L74V mutant reverse transcriptase (Human immunodeficiency virus type 1 BH10, UniProt P03366, L673V). The data set can be described thus: Reverse transcriptase mutant assay, L74V. The data set is classed as biochemical, HIV-1.
The target of data set [4] is HIV reverse transcriptase (Human immunodeficiency virus type 1 group M subtype B, UniProt P03366). The data set can be described thus: Reverse transcriptase scintillation proximity assay (Example 4, Table 2). The data set is classed as biochemical. The conditions noted are these: read-out: IC50 (RT activity). The method in brief: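 Purified RT with biotinylated 17mer/50mer RNA-DNA template-primer (39 nm), pH 8.0 Tris with 10 mM MgCl2, 60 mM KCl, dNTPs plus tritiated dTTP; inhibitor preincubated 10 min at 37 °C before enzyme, reaction 3 min. Incorporation read by streptavidin SPA counting.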
Background: In a scintillation proximity assay essentially only radioactivity close to the scintillant gives light.

Data set [5] deals with T2, Y181I mutant reverse transcriptase (Human immunodeficiency virus type 1 BH10, UniProt P03366, Y780I).
T2 construct: mature chain of Gag-Pol polyprotein
The data set can be described thus: biochemical.

The target of data set [6] is T3, L100I mutant reverse transcriptase (Human immunodeficiency virus type 1 BH10, UniProt P03366, L699I).
T3 construct: mature RT cut from Gag-Pol polyprotein
The data set can be described thus: biochemical.

The target in data set [7] is T4, K103N mutant reverse transcriptase (Human immunodeficiency virus type 1 BH10, UniProt P03366, K702N).
T4 construct: mature RT cut from Gag-Pol polyprotein
The data set can be described thus: biochemical.

Data set [8] deals with T5, V106A mutant reverse transcriptase (Human immunodeficiency virus type 1 BH10, UniProt P03366, V705A).
T5 construct: mature chain of Gag-Pol polyprotein
The data set can be described thus: biochemical. The data set is classed as biochemical.

Data set [9] has as its system mutant strains of HIV reverse transcriptase. The data set can be described thus: Reverse transcriptase mutant assays, mutants overall. The data set is classed as biochemical. As to the method:
(§1) The mutants were constructed using BspMI cassette mutagenesis as described previously by Boyer et al. (J Virol., 66:1031-1039 and 7533-7537 (1992)), which is hereby incorporated by reference. The RT assay has also been previously described by Boyer et al. (PNAS USA, 91:4882-4886 (1994)), which is also incorporated by reference. Briefly, RNA dependent DNA polymerase activity is assayed using purified RT protein and a poly(rC).olio(dG) template-primer as the substrate. The protein (1 μg) and substrate are assayed in a total reaction volume of 100 μl containing 0.01 unites poly(rC).olio(dG), 0.02 mM dGTP, 0.002 mCi [α-^32 P]dGTP, and a buffer containing 25 mM tris (pH 8.0), 75 mM KCL, 8.0 mM MgCl2, 2.0 mM dithiothreitol, and 10 mM 3-[(3-cholamidopropyl) diethylammoniol]-1-propane-sulfonate containing acetylated bovine serum albumin at 100 μg/ml. The assay mixture is incubated for 30 minutes, and then stopped by the addition of 50 μl of a 10 mg/ml solution of sheared and denatured salmon sperm DNA followed by 3.0 ml 10 percent trichloroacetic acid. The labeled polymer is collected by suction filtration on Whatman glass GF/C and counted.

The target in data set [10] is T6, E138K mutant reverse transcriptase (Human immunodeficiency virus type 1 BH10, UniProt P03366, E737K).
T6 construct: mature RT cut from Gag-Pol polyprotein
The data set can be described thus: biochemical.

The target in another data set is T7, WT reverse transcriptase (Human immunodeficiency virus type 1 BH10, UniProt P03366).
T7 construct: mature chain of Gag-Pol polyprotein
The data set can be described thus: Reverse transcriptase mutant assay, WT. Type of data set: biochemical, HIV-1. The protocol: as §1

Data set [11] has as its target AZT-21 (M41L/D67N/K70R/T215Y/K219Q) mutant reverse transcriptase (Human immunodeficiency virus type 1 BH10, UniProt P03366, D666N/K669R/K818Q/M640L/T814Y). The data set can be described thus: Reverse transcriptase mutant assay, AZT-21. The data set is classed as biochemical, HIV-1. The conditions noted are these: for % Activity Remaining: AZT-21 {M41L/D67N/K70R/T215Y/K219Q}.

The test system of the next data set is 293T cells. The data set can be described thus: Toxicity to 293T cells by growth curves and trypan blue exclusion. As to conditions: concentrations greater than ten times IC50 against HIV RT.
Data set [12] deals with HIV. The data set can be described thus: Cell-based anti-HIV (XTT) assay (National Institutes of Health). As to conditions: run by the National Institutes of Health. An excerpt:
The anti-viral evaluations branch of the National Institutes of Health also ran cell-based anti-HIV (XTT) assays and reverse transcriptase (RT) assays on a number of the novel compounds. […] These were: 31, 32, 35, 36, 53, 54, 57, 58, 91, 99, and 103.

The test system of data set [13] is HIV. As to conditions: cited from earlier work.

Where “and” joins values, the source holds several entries; their conditions need not be identical. Equal entries are not always repeated. Structures can show the parent of a compound that is named as a salt. Where two headings read alike, the source gives them in different places.

In general, IC50 refers to the concentration that inhibits the measured activity by half. Broadly, the remaining activity is the signal under treatment as a percentage of the control signal. The low end stands for little activity left, the high end for much activity left. As for `O=C(Nc1ccc2c(O)cc(S(=O)(=O)O)cc2c1)Nc1ccc2c(O)cc(S(=O)(=O)O)cc2c1` [Compound 1, carbonyl-J], the IC50 on HIV integrase [1] was 2500 nM; on HIV integrase [2] it was 2500 nM; in data set [4], ~5000 nM and 5000 nM. Moreover, the “% Activity Remaining” value in data set [3] (10 μM) amounted to 34%; in [3] (50 μM), 6%; in data set [8] (10 μM), 33%; in data set [11] (10 μM) it was 33%; in data set [11] (50 μM), 4%. The remaining activity at 10 µM in data set [5] (10 μM) amounted to 18%; in data set [6] (10 μM) it was 11%; in data set [7] (10 μM), 32%; in data set [10] (10 μM), 29%; at WT reverse transcriptase (10 μM), 29%. Further, the remaining activity at 50 µM in data set [5] (50 μM) is 1%; in data set [6] (50 μM) it was 1%; in data set [7] (50 μM), 3%; in [8] (50 μM), 4%; in data set [10] (50 μM) it was 4%; at WT reverse transcriptase (50 μM), 3%. In addition, in data set [9], the “activity against mutant reverse transcriptases” value was “displays activity against non-nucleoside mutants as well as other mutants”. In data set [11] (mutant M41L/D67N/K70R/T215Y/K219Q), the “difference in inhibition with respect to the wild type enzyme” value was “virtually no difference in inhibition was found with respect to the wild type enzyme”.

On to `O=C(O)/C=C/c1ccc(N=Nc2c(S(=O)(=O)O)cc3cc(NC(=O)Nc4ccc5c(O)c(N=Nc6ccc(/C=C/C(=O)O)cc6)c(S(=O)(=O)O)cc5c4)ccc3c2O)cc1` [Compound 5], for which the IC50 at HIV integrase [1] is 900 nM; on HIV integrase [2], 1000 nM; in data set [4] it was 200 nM. Also, in the data set on 293T cells, the toxicity to cells entry is on record as “not toxic even at concentrations greater than ten times its IC50”. Further, the “conclusion of cell-based anti-HIV (XTT) assays and reverse transcriptase (RT) assays” value with HIV [12] was “confirmed active”.

Regarding `Cc1ccccc1N=Nc1c(S(=O)(=O)[O-])cc2cc(NC(=O)Nc3ccc4c(O)c(N=Nc5ccc6cc(S(=O)(=O)[O-])ccc6c5)c(S(=O)(=O)[O-])cc4c3)ccc2c1O.[Na+].[Na+].[Na+]` [brilliant paper scarlet G], the “activity in AIDS antiviral screens” value with HIV [13] is “confirmed active”.

On to `CCOc1cc(N=Nc2cc(Cl)c(S(=O)(=O)O)cc2Cl)c2cc(S(=O)(=O)O)ccc2c1N=Nc1c(S(=O)(=O)O)cc2cc(NC(=O)c3ccc(N)cc3)ccc2c1O` [calcomine scarlet 4BNC, 2-naphthalenesulfonic acid, 7-[(4-aminobenzoyyl)amino]-3-[[4-[(2,5-dichloro-4-sulfophenyl)azo]-2-ethoxy-6-sulfo-1-naphthalenyl]azo]-4-hydroxy-,trisodium salt (9CI)], for which the “activity in AIDS antiviral screens” value in the data set with HIV [13] is on record as “confirmed active”.

With `COc1ccccc1N=Nc1c(S(=O)(=O)[O-])cc2cc(NC(=O)Nc3ccc4c(O)c(N=Nc5ccc(S(=O)(=O)[O-])cc5C)c(S(=O)(=O)[O-])cc4c3)ccc2c1O.[Na+].[Na+].[Na+]` [direct fast scarlet 4BSW], the “activity in AIDS antiviral screens” value with HIV [13] was “confirmed active”.

(Values after patent US6140368A, “Naphthols useful in antiviral methods” (The Regents of the University of California, priority 1998, dated 2000).)
